These results are taken from patent US11701394B2, “Compositions and methods for treating cholestatic disease” (Seres Therapeutics, Inc., priority 2017, dated 2023).

One data set deals with FXR. The data set can be described thus: FXR signaling in mice: CYP7A1 (liver) and FGF-15 (ileum) expression.
A further data set concerns the target T1, human FXR (Homo sapiens, UniProt Q96RI1).
T1 sequence (Q96RI1 262-486 limits assumed): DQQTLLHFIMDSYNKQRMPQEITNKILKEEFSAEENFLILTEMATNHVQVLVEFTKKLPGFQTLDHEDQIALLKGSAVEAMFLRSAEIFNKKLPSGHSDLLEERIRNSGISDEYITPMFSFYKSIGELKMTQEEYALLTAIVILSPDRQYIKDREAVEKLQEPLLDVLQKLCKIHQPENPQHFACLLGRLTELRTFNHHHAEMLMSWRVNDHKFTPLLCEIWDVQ
As to conditions: in the presence of 50 uM CDCA.

Procedure for human FXR: FXR reporter cell assays were performed by Indigo Biosciences as directed by Seres Therapeutics using Indigo's FXR reporter CHO cell line, which expresses an FXR receptor hybrid in which the native N-terminal DNA binding domain (DBD) has been replaced with that of a yeast Gal4 DBD. The reporter gene, firefly luciferase, is functionally linked to a Gal4 upstream activation sequence (UAS). […] Luminescence was determined following incubation with substrate and a detection reagent. In addition, live cell count was determined within the assay using a Live Cell Multiplex (LCM) Assay (Indigo Biosciences).

As to `CC[C@H]1[C@@H](O)[C@@H]2[C@H](CC[C@]3(C)[C@@H]([C@H](C)CCC(=O)O)CC[C@@H]23)[C@@]2(C)CC[C@@H](O)C[C@@H]12` [OCA, obeticholic acid], in the data set on FXR, the “CYP7A1 expression (liver)” value was “dose dependent decrease in CYP7A1 expression” and the “FGF-15 levels (ileum)” value is listed as “increase in FGF-15 levels”.
For `C[C@H](CCC(=O)O)[C@H]1CC[C@H]2[C@@H]3[C@H](O)C[C@@H]4C[C@H](O)CC[C@]4(C)[C@H]3C[C@H](O)[C@]12C` [cholic acid], in that order: “decreased CYP7A1 expression” and “increased FGF-15 levels in the ileum”.
In the case of `C[C@H](CCC(=O)O)[C@H]1CC[C@H]2[C@@H]3[C@H](O)[C@H](O)[C@@H]4C[C@H](O)CC[C@]4(C)[C@H]3CC[C@]12C` [HCA, hyocholic acid], the “hFXR activation in combination with CDCA” value at human FXR is “activated human FXR in a dose-dependent and synergistic manner”.
